The nature of one data set: clinical. It is filed as in vivo, human. The method, then:
The patient's diagnosis were CRC (7), breast (3), gastric (3) and other (4).
A total of 17 patients were entered in this pharmacokinetic study after informed consent.
Blood was sampled during 24 hours. […] Blood samples were taken by venipuncture in heparinized tubes of 9 ml and transported on ice for immediate processing.
Blood samples were centrifuged for 5 min at 4000 rpm and 4° C. The plasma was transferred to 2 eppendorf vials of 2 ml and stored at −20° C.
Analysis for tegafur and cyanuric acid was performed by validated HPLC assays, while the analysis of the other compounds was performed after derivatization by validated gas-chromatography-mass spectrometry methods as described previously [Peters G. J., Noordhuis P., Van Kuilenburg A. B. P., Schornagel J. H., Gall H., Turner S. L., Swart M. S., Voorn D., Van Gennip A. H., Wanders J., Holwerda U., Smid K., Giaccone G., Fumoleau P. and Van Groeningen C. […] Cancer Chemother. Pharmacol., 38: 1-12, 2003.].
The pharmacokinetic parameters for tegafur, 5FU, oxonic acid, cyan uric acid, and CDHP were calculated with the computer program WinNonLin (version 1.5). The data were analyzed using non-compartment modeling. The parameters that could be established were: time point of maximum observed concentration in plasma (Tmax), concentration in plasma corresponding to Tmax (Cmax), terminal half-life (t½), area under the plasma concentration versus time (C-t) curve (AUCall).

Data set [1] has as its target T1, dihydropyrimidine dehydrogenase (DPD) (Homo sapiens, UniProt Q12882).
T1 sequence (Q12882 4-1025): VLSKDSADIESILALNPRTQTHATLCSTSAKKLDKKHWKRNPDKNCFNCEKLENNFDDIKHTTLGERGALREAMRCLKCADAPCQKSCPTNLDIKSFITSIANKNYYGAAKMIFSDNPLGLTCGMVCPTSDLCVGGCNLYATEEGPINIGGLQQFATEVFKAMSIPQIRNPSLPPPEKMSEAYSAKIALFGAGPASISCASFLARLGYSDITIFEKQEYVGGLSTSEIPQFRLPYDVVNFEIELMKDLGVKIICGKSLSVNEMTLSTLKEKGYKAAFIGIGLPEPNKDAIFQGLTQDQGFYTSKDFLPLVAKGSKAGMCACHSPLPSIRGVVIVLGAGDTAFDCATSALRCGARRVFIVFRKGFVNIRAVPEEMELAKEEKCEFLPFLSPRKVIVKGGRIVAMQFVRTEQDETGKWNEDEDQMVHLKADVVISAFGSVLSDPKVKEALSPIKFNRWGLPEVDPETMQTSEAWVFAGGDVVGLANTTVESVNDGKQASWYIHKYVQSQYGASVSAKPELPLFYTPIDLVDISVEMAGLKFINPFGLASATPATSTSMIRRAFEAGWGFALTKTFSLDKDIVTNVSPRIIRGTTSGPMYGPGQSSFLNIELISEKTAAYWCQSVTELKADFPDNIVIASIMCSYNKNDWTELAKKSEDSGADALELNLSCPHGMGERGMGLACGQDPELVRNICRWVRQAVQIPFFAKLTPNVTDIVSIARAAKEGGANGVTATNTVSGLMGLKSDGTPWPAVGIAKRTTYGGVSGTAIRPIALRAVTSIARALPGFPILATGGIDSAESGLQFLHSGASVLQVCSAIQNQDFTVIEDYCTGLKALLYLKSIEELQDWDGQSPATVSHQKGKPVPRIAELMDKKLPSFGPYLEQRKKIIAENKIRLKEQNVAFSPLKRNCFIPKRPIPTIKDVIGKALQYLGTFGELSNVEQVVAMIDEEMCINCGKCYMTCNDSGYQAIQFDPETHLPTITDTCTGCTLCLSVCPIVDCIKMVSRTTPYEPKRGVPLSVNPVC
Briefly: Inhibition of dihydropyrimidine dehydrogenase. The following applies: vs uracil. In kind it is biochemical. An excerpt: It is gradually converted to 5-FU in vivo. • CDHP inhibits the catabolism of 5-FU by reversibly inhibiting the enzyme of dihydropyrimidine dehydrogenase (DPD). […] CDHP helps maintain effective blood and tumor concentrations of 5-FU for a prolonged period thus potentially achieving a similar therapeutic effect as protracted infusion of 5-FU. • Oxo blocks phosphorylation of 5-FU by orotate phosphoribosyltransferase (OPRT) in the gastrointestinal tract. […] Oxo is acid labile and thus its bioavailability is affected by food intake.

Another data set has as its system advanced gastric cancer. Conditions: in vivo.
Where [2] appears, read: human, in vivo, po, 35 mg/m2, AUCall.
Where [3] appears, read: human, in vivo, po, 35 mg/m2, Cmax.
The mark [4] stands for this setting: human, in vivo, po, 35 mg/m2, t½.
Setting [5] is: human, in vivo, po, 35 mg/m2, Tmax.
Where [6] appears, read: comparison fasting vs feeding group, S-1 35 mg/m^2.

As to `O=c1[nH]c(=O)n(C2CCCO2)cc1F` (racemic) [FT, 5-Fluoro-1-[(RS)-tetrahydrofuran-2-yl]pyrimidine-2,4-(1H,3H)-dione, reference compound], the Tmax in the data set “clinical” (human, in vivo, po, 35 mg/m2) is 0.6 h. This molecule yielded an AUC in “clinical” (setting [2]) of 15700 ng·h/mL. Besides, the Cmax in “clinical” (setting [3]) turned out to be 2370 ng/mL. The half-life in the data set “clinical” (setting [4]) is 8.6 h. In the data set “clinical” (in vivo), the “Tmax, without breakfast vs after breakfast” value was “earlier without breakfast” and the “t½, fasting vs feeding group” value is “no significant difference”.
In “clinical” (setting [2]), `O=c1[nH]cc(F)c(=O)[nH]1` [5-FU, 5-fluorouracil, reference compound] came in with an AUC of 1100 ng·h/mL. In “clinical” (setting [3]), this molecule showed a Cmax of 210 ng/mL. In “clinical” (setting [5]), the Tmax came out at 1.8 h. The molecule also gave a half-life in “clinical” (setting [4]) of 2.2 h. For the same molecule, in “clinical” (in vivo), the “Tmax, without breakfast vs after breakfast” value is “reached earlier without breakfast” and the “t½, fasting vs feeding group” value was “no significant difference”.
For the molecule `O=c1[nH]c(=O)[nH]c(=O)[nH]1` [CA, cyanuric acid], the “AUCall, fasting vs feeding group” value in “clinical” (setting [6]) is “higher values in the feeding group as compared to the fasting group”. Further, the “Cmax, fasting vs feeding group” value in “clinical” (setting [6]) is “not significantly different”. In addition, the “Tmax, without breakfast vs after breakfast” value in “clinical” (setting [6]) is “faster Tmax without breakfast”. Further, in “clinical” (setting [6]), the “t½, fasting vs feeding group” value is reported as “not significantly different”. Also, the AUC turned out to be 517 ng·h/mL in “clinical” (human, in vivo, po, 35 mg/m2, plasma, mean, S-1 35 mg/m^2 oral, fasted patients, read-out: AUCall) and 1220 ng·h/mL in “clinical” (human, in vivo, po, 35 mg/m2, plasma, mean, S-1 35 mg/m^2 oral, fed patients, read-out: AUCall). For the same molecule, the Cmax in “clinical” (human, in vivo, po, 35 mg/m2, plasma, mean, S-1 35 mg/m^2 oral, fasted patients, read-out: Cmax) was 118 ng/mL; in “clinical” (human, in vivo, po, 35 mg/m2, plasma, mean, S-1 35 mg/m^2 oral, fed patients, read-out: Cmax), 160 ng/mL. The Tmax in the data set “clinical” (human, in vivo, po, 35 mg/m2, plasma, mean, S-1 35 mg/m^2 oral, fasted patients, read-out: Tmax) was 1.3 h; in the data set “clinical” (human, in vivo, po, 35 mg/m2, plasma, mean, S-1 35 mg/m^2 oral, fed patients, read-out: Tmax), 3.5 h. In addition, the half-life in the data set “clinical” (human, in vivo, po, 35 mg/m2, plasma, mean, S-1 35 mg/m^2 oral, fasted patients, read-out: t½ (converted)) was 5.3 h; in “clinical” (human, in vivo, po, 35 mg/m2, plasma, mean, S-1 35 mg/m^2 oral, fed patients, read-out: t½ (converted)), 6.7 h.
In “clinical” (setting [2]), `Oc1cc(O)c(Cl)cn1` [CDHP, 5-chloro-2,4-dihydroxypyridine] displayed an AUC of 1920 ng·h/mL. This molecule registered a Cmax in the data set “clinical” (setting [3]) of 464 ng/mL. For the same molecule, the Tmax in “clinical” (setting [5]) came to 1.1 h. The half-life in “clinical” (setting [4]) is 4.5 h. Further, in “clinical” (in vivo), the “Tmax, without breakfast vs after breakfast” value is “reached earlier without breakfast” and the “t½, fasting vs feeding group” value is on record as “no significant difference”. Moreover, the “potency of DPD inhibition relative to uracil” value in data set [1] came to 180 fold.
As to `O=C(O)c1nc(=O)[nH]c(=O)[nH]1` [Oxo, potassium oxonate], the “effect of food on bioavailability” value in the data set “clinical” (human, in vivo, po) is recorded as “profound effect”. In “clinical” (human, in vivo, po, 35 mg/m2), this molecule gave an AUCall of 808.7 ng·h/mL and a Cmax of 158.1 ng/mL. The Tmax in “clinical” (setting [5]) stood at 1.6 h. The molecule also showed a half-life in “clinical” (setting [4]) of 3.9 h. Moreover, in the data set “clinical” (in vivo), the “Tmax, without breakfast vs after breakfast” value is listed as “significantly faster without breakfast” and the “t½, fasting vs feeding group” value is given as “not significantly different”.
Turning to `N.N.[Cl][Pt][Cl]` [cisplatin], the “recommended dose for the phase II portion” value in the data set on advanced gastric cancer was 60 mg/m^2.

(Values after patent US20080166427A1, “Method for Reducing Gastrointestinal Toxicity Due to the Administration of Tegafur” (Taiho Pharmaceutical Co., Ltd, priority 2004, published 2008).)
